Laboratory results published in patent publication US11434212B2, “Bicyclic compound as a caspase inhibitor” (CHIA TAI TIANQING PHARMACEUTICAL GROUP CO., LTD., priority 2017, dated 2022).
Entries after “also recorded” stand apart in the source; their conditions may differ. Values belong to the compound of their own block, whether it stands above or below them.

Tests used:
[1] = molecular target: T1, Caspase-3 (Homo sapiens, UniProt P42574); assay: In vitro inhibitory activity on Caspase-3 (BioVision Caspase-3 Inhibitor Screening Kit); assay type: biochemical; details: fluorogenic substrate 50 μM; test concentrations 1000 nM to 0.32 nM
T1 construct: purchased BioVision K153-100
T1 sequence (P42574 29-175 limits assumed): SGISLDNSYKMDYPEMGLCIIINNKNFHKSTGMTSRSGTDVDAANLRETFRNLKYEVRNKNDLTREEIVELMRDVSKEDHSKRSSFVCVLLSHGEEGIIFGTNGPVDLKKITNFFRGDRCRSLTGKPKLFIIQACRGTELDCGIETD
T1 sequence (P42574 176-277 limits assumed): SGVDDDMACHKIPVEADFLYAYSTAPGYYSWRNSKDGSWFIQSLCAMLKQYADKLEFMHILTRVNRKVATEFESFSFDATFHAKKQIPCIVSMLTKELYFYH
Protocol: (§1) Caspase Inhibitor Screening Kit for BioVision was used in this experiment to test the inhibitory activity of the test compounds on Caspase.
Caspase-3 Inhibitor Screening Kit (BioVision #K153-100)
(§2) Note: Each caspase enzymatic experiment uses the reagents in corresponding kit thereof. Each enzyme was dissolved in 550 μl of the corresponding 2× reaction buffer, sub-packed and stored at −80° C., respectively.
(§3) 1) The compound was diluted to a 200*test concentration with DMSO via the multiple dilution, then to a 2*test concentration with ddH2O, and added to a 384-well experimental plate at 12.5 μl per well. Test compounds and control compounds were tested at 6 concentration points, test concentrations ranging from 1000 nM to 0.32 nM. The ddH2O containing 1% DMSO was added to the 0% inhibition control well, and a high concentration of the control compound was added to the 100% inhibition control well (final concentration: 5 μM).
(§4) 2) 2× reaction buffer containing 10 mM DTT was prepared. The enzyme caspase stock solution was diluted 5-fold with 2× reaction buffer containing 10 mM DTT and added to a 384-well experimental plate at 6.25 μl per well. After being mixed, the enzyme and compounds were incubated at 37° C. for 30 minutes.
(§5) 3) The fluorogenic substrate of the enzyme caspase was diluted 5-fold with 2× reaction buffer containing 10 mM DTT, and then added to a 384-well experimental plate at 6.25 μl per well. The total reaction volume was 25 μl, the final concentration of the substrate was 50 μM, and the final concentration of DMSO was 0.5%. After the substrate was added, the 384-well experimental plate was incubated at 37° C. for 30 minutes.
(§6) 4) The fluorescence intensity (excitation light wavelength was 400 nm, emission light wavelength was 505 nm) was measured by using a multi-function microplate reader. Fluorescence intensity was used to calculate the inhibitory effect of the compounds on Caspase. GraphPad Prism software was used for fitting compound inhibition curves and calculating IC50 values.

[2] = molecular target: T2, Caspase-8 (Homo sapiens, UniProt Q14790); assay: In vitro inhibitory activity on Caspase-8 (BioVision Caspase-8 Inhibitor Screening Kit); assay type: biochemical; details: fluorogenic substrate 50 μM; test concentrations 1000 nM to 0.32 nM
T2 construct: purchased BioVision K158-100
T2 sequence (Q14790 217-374 limits assumed): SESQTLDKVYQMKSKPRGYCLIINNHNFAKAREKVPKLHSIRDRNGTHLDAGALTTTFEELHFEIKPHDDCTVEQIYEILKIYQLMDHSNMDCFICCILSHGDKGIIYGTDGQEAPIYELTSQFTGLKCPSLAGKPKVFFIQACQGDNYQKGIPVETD
T2 sequence (Q14790 385-479 limits assumed): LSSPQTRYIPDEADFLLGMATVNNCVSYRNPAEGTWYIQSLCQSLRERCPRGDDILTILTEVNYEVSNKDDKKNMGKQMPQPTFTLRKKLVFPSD
Protocol: as §1
Caspase-8 Inhibitor Screening Kit (BioVision #K158-100)
as §2, §3, §4, §5, §6

[3] = molecular target: T3, Caspase-1 (Homo sapiens, UniProt P29466); assay: In vitro inhibitory activity on Caspase-1 (BioVision Caspase-1 Inhibitor Screening Kit); assay type: biochemical; details: fluorogenic substrate 50 μM; test concentrations 1000 nM to 0.32 nM
T3 construct: purchased BioVision K151-100
T3 sequence (P29466 120-297 limits assumed): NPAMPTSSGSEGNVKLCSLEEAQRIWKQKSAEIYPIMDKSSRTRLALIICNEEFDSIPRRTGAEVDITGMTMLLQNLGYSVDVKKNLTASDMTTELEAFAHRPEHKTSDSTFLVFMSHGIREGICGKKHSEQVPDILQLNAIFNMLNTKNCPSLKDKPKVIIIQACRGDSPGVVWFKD
T3 sequence (P29466 317-404 limits assumed): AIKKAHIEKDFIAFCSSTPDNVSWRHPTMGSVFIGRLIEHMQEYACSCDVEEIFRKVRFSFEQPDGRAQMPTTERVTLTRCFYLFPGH
Protocol: as §1
Caspase-1 Inhibitor Screening Kit (BioVision #K151-100)
as §2, §3, §4, §5, §6

[4] = test system: CCl4-induced chronic liver fibrosis model; assay: Pharmacodynamic study in CCl4-induced chronic liver fibrosis model; assay type: in vivo, male C57BL/6 mice; design: Total score of liver injury / Ballooning change score: scale not given here; details: for Ballooning change score / Inflammatory cell infiltration / Percentage of liver fibrosis / Total score of liver injury: p.o., bid, 28 days, mean ± sem; for Effect on CCl4-induced liver tissue damage (in words) / Inhibitory effect on liver fibrosis (in words): different doses, oral twice a day for 28 days, vs model group
Protocol: The therapeutic effects of the test compound IDN-6556 and the compound of Example 1 in the CCl4-induced chronic liver fibrosis model of male C57BL/6 mice were tested.
Male C57BL/6 mice were randomly divided into 7 groups: pseudo model group (group 1), model group (group 2, solvent p.o., q.d), IDN-6556 (group 3, 3 mg/kg, p.o., bid), IDN-6556 (group 4, 10 mg/kg, p.o., bid), Example 1 (group 5, 3 mg/kg, p.o., bid), Example 1 (group 6, 10 mg/kg, p.o., bid)), Example 1 (group 7, 20 mg/kg, p.o., bid). CCl4 was formulated into a CCl4-olive oil mixed solution according to the doses by using olive oil, modeling is performed by orally administration three times a week for 4 weeks; and the pseudo model group was orally administered with the same volume of olive oil alone. Compounds were orally administrated from the day of modeling, twice a day for 28 days, while the pseudo model group and the model group were orally administered with an equal volume of drug solvent. On the next day after the last administration, the animals were fasted for 6 hours, followed by euthanizing, and the livers were collected. Liver tissues were fixed in 10% formalin solution for histopathological analysis.

[5] = Mouse pharmacokinetic study in plasma and liver after oral administration; assay type: in vivo, male C57BL/6J mice; details: for concentration at 0.5 h / concentration at 2 h / concentration at 6 h: male, C57BL/6J, plasma, read-out: Plasma drug concentration; for liver drug-time curve (area) / plasma drug-time curve (area): 0.5-6 h samples
Excerpt: This experiment intended to investigate the pharmacokinetics in plasma and liver of male C57BL/6J mice after oral administration of the compounds.
Mice were randomly divided into three groups (3 male mice per group). The compound was formulated into the specified formulation. Oral formulations may be clear or uniform suspensions. Animals were intragastrically administered with a given dose of the preparation, respectively.
Whole blood samples were collected from animals through jugular vein puncture at 3 time points of 30 minutes, 2 hours, and 6 hours after administration, approximately 25 μL per sample; while the liver was collected at each time point.
The plasma samples were added to centrifuge tubes containing anticoagulant, and centrifuged at 4° C., 3000 g for 15 min, and the supernatant plasma was taken and quickly frozen on dry ice and then stored in a refrigerator at −70±10° C. until LC-MS/MS analysis was performed.
The blood outside the liver was sopped up with absorbent paper, and the weight of the liver was weighed, and then placed in liquid nitrogen to freeze. MeOH/15 mM PBS (1:2) at a volume-weight ratio of 1:5 was added thereto, and then the homogenization was performed at 14000 rpm for 2 minutes. It was then stored in a refrigerator at −70±10° C. until LC-MS/MS analysis was performed.
The plasma drug concentration data for the compounds were processed with the non-compartment model using WinNonlin™ Version 6.3.0 (Pharsight, Mountain View, Calif.) pharmacokinetic software. The maximal concentration (Cmax), maximal concentration time (Tmax) and quantitative end time were directly obtained from the plasma concentration-time chart.
The following pharmacokinetic parameters were calculated by using logarithmic linear trapezoidal method: elimination phase half-life (T1/2); the in vivo mean residence time of the drug from point 0 to the last time point (MRT0-last); the in vivo mean residence time of the drug from point 0 to infinite time (MRT0-ifn); the area under time-plasma concentration curve from point 0 to the last time point (AUC0-last); the area under time-plasma concentration curve from point 0 to infinite time (AUC0-inf).
For individual plasma concentrations less than BQL, the one occurred before Tmax was calculated as 0, and the one occurred after Tmax was directly excluded. All parameters and ratios were reported in the forms of three significant digits.
The pharmacokinetic parameters of this experiment were calculated according to the theoretical blood collection times and the theoretical administration concentrations in the protocol. The deviations between the actual administration concentrations and the theoretical concentrations were within the range of ±20%. The deviations between the actual blood collection times and the theoretical blood collection times were in conformity with the relevant SOP (the points within 1 hour after administration were within the range of ±1 min, and the others were within 5% of the theoretical time).

[6] = 0.5 h after oral (intragastric) administration
[7] = 2 h after oral (intragastric) administration
[8] = 6 h after oral (intragastric) administration

SMILES: C[C@H](NC(=O)c1cc(-c2cccc(Cl)c2)on1)C(=O)N[C@@H](CC(=O)O)C(=O)COc1c(F)c(F)cc(F)c1F [Example 10]
- IC50 [1]: 22 nM
- IC50 [2]: 16.3 nM
- IC50 [3]: 6.6 nM

SMILES: C[C@H](NC(=O)c1cc(-c2ccccc2)on1)C(=O)N[C@@H](CC(=O)O)C(=O)COc1c(F)c(F)cc(F)c1F [Example 9]
- IC50 [1]: 44.4 nM
- IC50 [2]: 23.2 nM
- IC50 [3]: 14.2 nM

SMILES: C[C@H](NC(=O)c1cc(-c2ccccc2Cl)on1)C(=O)N[C@@H](CC(=O)O)C(=O)COc1c(F)c(F)cc(F)c1F [Example 1, (S)-3-((S)-2-(5-(2-chlorophenyl)isoxazol-3-carboxamido)propionamido)-4-oxo-5-(2,3,5,6-tetrafluorophenoxy)pentanoic Acid]
- Ballooning change score ([4]; 3 mg/kg): 0.00 ± 0.00
- Inflammatory cell infiltration ([4]; 3 mg/kg): 1.13 ± 0.06
- Percentage of liver fibrosis ([4]; 3 mg/kg): 1.61 ± 0.05^$$ %
- Total score of liver injury ([4]; 3 mg/kg): 1.13 ± 0.06
- Ballooning change score ([4]; 10 mg/kg): 0.00 ± 0.00
- Inflammatory cell infiltration ([4]; 10 mg/kg): 1.15 ± 0.07
- Percentage of liver fibrosis ([4]; 10 mg/kg): 1.62 ± 0.07^$ %
- Total score of liver injury ([4]; 10 mg/kg): 1.20 ± 0.07
- Ballooning change score ([4]; 20 mg/kg): 0.00 ± 0.00
- Inflammatory cell infiltration ([4]; 20 mg/kg): 1.10 ± 0.04
- Percentage of liver fibrosis ([4]; 20 mg/kg): 1.69 ± 0.10%
- Total score of liver injury ([4]; 20 mg/kg): 1.12 ± 0.04
- Effect on CCl4-induced liver tissue damage (in words) [4]: significantly improve; also recorded: significantly inhibit
- Inhibitory effect on liver fibrosis (in words) [4]: significantly inhibited; also recorded: significant inhibitory effect
- Liver drug concentration [5, 6]: 46440 nmol/kg
- Liver drug concentration [5, 7]: 3126 nmol/kg
- Liver drug concentration [5, 8]: 3252 nmol/kg
- concentration at 0.5 h [5, 6]: 2520 nM
- concentration at 2 h [5, 7]: 112 nM
- concentration at 6 h [5, 8]: 12.8 nM
- Liver exposure compared to IDN-6556 ([5]; oral administration): about 5 times
- liver drug-time curve (area) ([5]; oral administration): 48.442 µM·h
- plasma drug-time curve (area) ([5]; oral administration): 1.795 µM·h

SMILES: C[C@H](NC(=O)C(=O)Nc1ccccc1C(C)(C)C)C(=O)N[C@@H](CC(=O)O)C(=O)COc1c(F)c(F)cc(F)c1F [IDN-6556, reference compound]
- Ballooning change score ([4]; 3 mg/kg): 0.05 ± 0.04
- Inflammatory cell infiltration ([4]; 3 mg/kg): 1.55 ± 0.06
- Percentage of liver fibrosis ([4]; 3 mg/kg): 1.84 ± 0.07%
- Total score of liver injury ([4]; 3 mg/kg): 1.60 ± 0.07
- Ballooning change score ([4]; 10 mg/kg): 0.08 ± 0.04
- Percentage of liver fibrosis ([4]; 10 mg/kg): 1.86 ± 0.12%
- Total score of liver injury ([4]; 10 mg/kg): 1.43 ± 0.12
- Effect on CCl4-induced liver tissue damage (in words) [4]: significantly inhibit
- Inhibitory effect on liver fibrosis (in words) [4]: no clear inhibitory effect
- Effect on CCl4-induced liver tissue damage (in words) ([4]; listed as IND-6556): significantly improve
- Liver drug concentration [5, 6]: 8600 nmol/kg
- Liver drug concentration [5, 7]: 930 nmol/kg
- Liver drug concentration [5, 8]: 230 nmol/kg
- concentration at 0.5 h [5, 6]: 435 nM
- concentration at 2 h [5, 7]: 10.9 nM
- concentration at 6 h [5, 8]: 5.79 nM
- liver drug-time curve (area) ([5]; oral administration): 9.347 µM·h
- plasma drug-time curve (area) ([5]; oral administration): 0.314 µM·h

Second part, the compound after the results:

- IC50 [1]: 21.8 nM
- IC50 [2]: 18 nM
- IC50 [3]: 5.5 nM
SMILES: C[C@H](NC(=O)c1cc(-c2ccccc2)no1)C(=O)N[C@@H](CC(=O)O)C(=O)COc1c(F)c(F)cc(F)c1F [Example 8]

- IC50 [1]: 11.4 nM
- IC50 [2]: 11.7 nM
- IC50 [3]: 4.1 nM
SMILES: C[C@H](NC(=O)c1cc(-c2ccccc2)n[nH]1)C(=O)N[C@@H](CC(=O)O)C(=O)COc1c(F)c(F)cc(F)c1F [Example 4]

- IC50 [1]: 20.2 nM
- IC50 [2]: 30 nM
- IC50 [3]: 6.9 nM
SMILES: C[C@H](NC(=O)c1coc(-c2ccccc2)n1)C(=O)N[C@@H](CC(=O)O)C(=O)COc1c(F)c(F)cc(F)c1F [Example 7]
